The values below come from patent US20050123479A1, “Therapeutic properties of oils” (priority 2002, published 2005).

This test relates to human T lymphocytes. Put plainly: PHA-induced lymphocyte proliferation (3H-TdR incorporation). The test is classed as cell-based. The settings on record: compared with 18:1ω9, 18:0 and 18:2; preliminary studies (FIG. 24). The method, then:
Lymphocyte proliferation was measured by a semi-automated microtechnique (12). Human mononuclear cells (2×10^5) were seeded into u-bottomed wells of a micro-titre plate (50 μl) and treated with 500 of the ethanol emu oil fraction. After 30 min incubation, […] PHA was added to stimulate the T lymphocytes. The cells were incubated for 72 h at 37° C. in an atmosphere of 5% CO2-air and high humidity. At 6 h prior to harvest, the cultures were pulsed with 1 μCi of ^3H-TdR. The cells were harvested and the amount of radioactivity incorporated measured in a liquid scintillation counter.
Makin emu oil was subjected to solubility in ethanol. This ethanol soluble oil fraction was then tested for ability to depress proliferation of mitogen stimulated human lymphocytes. The mononuclear cells were isolated from peripheral blood and pretreated for 30 min with dilutions of the fraction and then challenged with phytohaemagglutinin (PHA). Proliferation of lymphocytes was measured after 48 hours using ^3H-TdR incorporation as a marker for DNA synthesis.

Turning to `CCCCC/C=C\C/C=C\CCCCCCCC(=O)O` [18:2ω6, Linoleic acid (18:2ω6)], the “inhibition of T lymphocyte and mononuclear cell responses by fatty acids” value is on record as “strongly inhibitory”.
